The text below walks through data of EP2844225B1, “AVERMECTIN POUR-ON FORMULATION WITH REDUCED WITHDRAWAL TIME” (Norbrook Laboratories Limited, priority 2012, dated 2013).

Molecules are shown by their SMILES. Several values for one entry are separate records, joined by “and”; a condition that tells them apart may be missing. Equal values may be shown once.

The nature of this series: Plasma levels of eprinomectin in cattle after topical pour-on administration (HPLC with fluorescence detection). The note with it: for Plasma concentration of eprinomectin: 0.5 mg/kg bodyweight, individual animals. As for the experimental part: Twenty beef cattle of mixed gender and aged approximately between 10-20 months at the time of selection were used to determine the levels of eprinomectin in plasma following topical administration of the composition set forth in Table 1 below at a dose rate of 0.5mg/kg of eprinomectin.
The composition was administered along the midline of the back in a narrow strip between the withers and the tailhead using 60 ml syringes graduated to 1 ml. […] Blood samples were collected from each animal by venipuncture from the jugular vein using suitably labelled 9ml heparinised vacutainers. Following collection, samples were placed on ice protected from light under black cover prior to centrifugation. After centrifugation at 4500 revolutions per minute (RPM) for 5 minutes, the plasma was subsampled into 3 amber cryovials (-1ml plasma/cryovial). Plasma samples were stored at <-20°C until assayed. All samples were assayed for the determination of eprinomectin content, measured as eprinomectin B 1 a (hereafter referred to as eprinomectin) by HPLC.

The mark [1] stands for this setting: bovine, in vivo, topical or ocular, 0.5 mg/kg.

What is called AUC is concentration integrated over time. A high value points to high exposure. A word on the Cmax: it is the peak of the concentration-time curve. Broadly, the Tmax is the time at which the peak concentration occurs. Turning to `CC[C@H](C)[C@H]1O[C@]2(C=C[C@@H]1C)C[C@@H]1C[C@@H](C/C=C(\C)[C@@H](O[C@H]3C[C@H](OC)[C@@H](O[C@H]4C[C@H](OC)[C@H](NC(C)=O)[C@H](C)O4)[C@H](C)O3)[C@@H](C)/C=C/C=C3\CO[C@@H]4[C@H](O)C(C)=C[C@@H](C(=O)O1)[C@]34O)O2` [eprinomectin], under setting [1], the AUC was found to be 7840 ± 2700 ng·h/mL. The concentration under setting [1] peaked (Cmax) at 45.5 ± 18.4 ng/mL. Further, the Tmax under setting [1] stood at 96 h. Also, for the setting “bovine, in vivo, topical or ocular, 0.5 mg/kg, mean plasma concentrations ± SD, cattle, topical, 24 hours, mean of all animals”, the concentration at 24 h is 14.3 ± 5.09 ng/mL. For the same molecule, the concentration at 240 h (bovine, in vivo, topical or ocular, 0.5 mg/kg, mean plasma concentrations, cattle, topical, 240 hours post administration, mean ± SD) is 15 ± 6.69 ng/mL. For the setting “bovine, in vivo, topical or ocular, 0.5 mg/kg, mean plasma concentrations, cattle, topical, 408 hours, mean ± SD”, this molecule gave a concentration at 408 h of 2.9 ± 1.15 ng/mL. Moreover, the “Plasma concentration of eprinomectin” value was less than 1.00 ng/mL (cattle, topical, time point 0 hrs (pre-treatment)); 17.6 ng/mL and 16.9 ng/mL and 20.2 ng/mL and 10.2 ng/mL and 14.6 ng/mL and 6.61 ng/mL and 5.98 ng/mL (cattle, topical, time point 24 hrs, 0.5 mg/kg, 1440 min); 24.7 ng/mL and 36.7 ng/mL and 27.7 ng/mL and 23.5 ng/mL and 26.7 ng/mL and 12.7 ng/mL and 8.29 ng/mL (cattle, topical, time point 48 hrs, 0.5 mg/kg, 2880 min); 30.3 ng/mL and 49.8 ng/mL and 30.1 ng/mL and 39.1 ng/mL and 36.9 ng/mL and 17.4 ng/mL and 13.5 ng/mL (cattle, topical, time point 72 hrs, 0.5 mg/kg, 4320 min); 32.2 ng/mL and 56.9 ng/mL and 36.1 ng/mL and 38.5 ng/mL and 45.3 ng/mL and 19.9 ng/mL (cattle, topical, time point 96 hrs, 0.5 mg/kg, 5760 min); 24.8 ng/mL and 76.5 ng/mL and 27.0 ng/mL and 33.8 ng/mL and 44.7 ng/mL and 25.2 ng/mL (cattle, topical, time point 120 hrs, 0.5 mg/kg, 7200 min). For the same molecule, the “Plasma concentration of eprinomectin” value is, setting by setting: (cattle, topical, time point 144 hrs, 0.5 mg/kg, 8640 min) 20.5 ng/mL and 71.7 ng/mL and 24.5 ng/mL and 40.6 ng/mL and 44.7 ng/mL and 28.3 ng/mL; (cattle, topical, time point 192 hrs, 0.5 mg/kg, 11520 min) 10.8 ng/mL and 44.1 ng/mL and 15.8 ng/mL and 31.1 ng/mL and 38.1 ng/mL and 21.6 ng/mL; (cattle, topical, time point 216 hrs, 0.5 mg/kg, 12960 min) 9.41 ng/mL and 31.1 ng/mL and 13.4 ng/mL and 31.7 ng/mL and 31.2 ng/mL and 16.8 ng/mL and 14.4 ng/mL; (cattle, topical, time point 240 hrs, 0.5 mg/kg, 14400 min) 7.12 ng/mL and 21.7 ng/mL and 10.3 ng/mL and 29.2 ng/mL and 24.3 ng/mL and 13.3 ng/mL and 11.2 ng/mL; (cattle, topical, time point 312 hrs, 0.5 mg/kg, 18720 min) 4.14 ng/mL and 10.7 ng/mL and 4.53 ng/mL and 14.5 ng/mL and 10.3 ng/mL and 8.49 ng/mL and 3.76 ng/mL; (cattle, topical, time point 336 hrs, 0.5 mg/kg, 20160 min) 2.67 ng/mL and 6.98 ng/mL and 3.27 ng/mL and 10.8 ng/mL and 8.74 ng/mL and 7.94 ng/mL and 3.94 ng/mL. The “Plasma concentration of eprinomectin” value reads like this: (cattle, topical, time point 360 hrs, 0.5 mg/kg, 21600 min) 1.90 ng/mL and 5.46 ng/mL and 2.21 ng/mL and 8.23 ng/mL and 7.19 ng/mL and 5.54 ng/mL and 3.37 ng/mL; (cattle, topical, time point 408 hrs, 0.5 mg/kg, 24480 min) 1.45 ng/mL and 2.79 ng/mL and 1.28 ng/mL and 4.89 ng/mL and 4.57 ng/mL and 4.06 ng/mL and 2.13 ng/mL.
